This experiment deals with P388 leukemia ip, CD2F1 mice, survival T/C. Put plainly: NCI In Vivo Anticancer Drug Screen. Data for tumor model P388 Leukemia (intraperitoneal) in CD2F1 (CDF1) mice. The note with it: endpoint: median survival time, higher = longer survival. In outline: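 Mice carrying the transplanted tumor received test compound or vehicle. Survival was recorded in each group, and the value is the treated-group measurement divided by that of the vehicle-treated control group.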

[1] abbreviates: dose: 50.0 mg/kg/injection, schedule: Q01DX009 (ip), vehicle: Klucel (hydroxypropylcellulose) (HPC).
[2] abbreviates: dose: 100.0 mg/kg/injection, schedule: Q01DX009 (ip), vehicle: Klucel (hydroxypropylcellulose) (HPC).
Setting [3] is: dose: 200.0 mg/kg/injection, schedule: Q01DX009 (ip), vehicle: Klucel (hydroxypropylcellulose) (HPC).

SMILES strings stand for the structures. Values joined by “and” are separate entries in the source; they are usually repeats but may differ in a detail not shown here. Equal values may be shown once. Toxic doses and inconclusive results are not listed.

On to `COc1ccc([N+](=O)[O-])cc1NS(=O)(=O)c1ccc(NC(C)=O)cc1`, for which the T/C reads like this: under setting [1], 100 % of control; under setting [2], 99 % of control; under setting [3], 99 % of control.

For the compound `COc1ccccc1NC(N)=S`, the T/C was 96 % of control (dose: 25.0 mg/kg/injection, schedule: Q01DX009 (ip), vehicle: Klucel (hydroxypropylcellulose) (HPC)); 98 % of control under setting [1]; 96 % of control under setting [2]; 97 % of control under setting [3].

Turning to `NCCc1ccc(O)c(O)c1`, the T/C is 100 % of control and 96 % of control (dose: 1.5 mg/kg/injection, schedule: Q01DX009 (ip), vehicle: saline); 99 % of control and 100 % of control (dose: 15.0 mg/kg/injection, schedule: Q01DX009 (ip), vehicle: saline); 108 % of control (dose: 25.0 mg/kg/injection, schedule: Q01DX009 (ip), vehicle: saline); 101 % of control (dose: 50.0 mg/kg/injection, schedule: Q01DX009 (ip), vehicle: other); 107 % of control and 108 % of control (dose: 50.0 mg/kg/injection, schedule: Q01DX009 (ip), vehicle: saline); 83 % of control (dose: 100.0 mg/kg/injection, schedule: Q01DX009 (ip), vehicle: other). In addition, the T/C reads like this: (dose: 100.0 mg/kg/injection, schedule: Q01DX009 (ip), vehicle: saline) 101 % of control and 108 % of control; (dose: 150.0 mg/kg/injection, schedule: Q01DX009 (ip), vehicle: saline) 123 % of control; (dose: 200.0 mg/kg/injection, schedule: Q01DX009 (ip), vehicle: other) 90 % of control; (dose: 200.0 mg/kg/injection, schedule: Q01DX009 (ip), vehicle: saline) 112 % of control and 115 % of control; (dose: 300.0 mg/kg/injection, schedule: Q01DX009 (ip), vehicle: saline) 92 % of control; (dose: 400.0 mg/kg/injection, schedule: Q01DX009 (ip), vehicle: other) 83 % of control. The T/C is 99 % of control and 121 % of control (dose: 400.0 mg/kg/injection, schedule: Q01DX009 (ip), vehicle: saline); 153 % of control (dose: 600.0 mg/kg/injection, schedule: Q01DX009 (ip), vehicle: saline).

For `C=CCC12CC(COc3ccccc3C(N)=O)OC1=Nc1ccccc1NC2=O` (centres undefined), the T/C is 113 % of control (dose: 50.0 mg/kg/injection, schedule: Q01DX005 (ip), vehicle: saline with Tween-80); 100 % of control (dose: 100.0 mg/kg/injection, schedule: Q01DX005 (ip), vehicle: saline with Tween-80); 99 % of control (dose: 200.0 mg/kg/injection, schedule: Q01DX005 (ip), vehicle: saline with Tween-80).
